The conditions of series [1]: human, caco-2, 2 h, 10 µM.
The conditions of series [2]: human, caco-2, 2 h, 10 µM. The source holds these as a separate data set.
A further series is described as follows: clinical. As to conditions: human, in vivo.
A short description of series [3]: in vitro. As to conditions: human, Caco-2.
Another series relates to P-gp. Kind of series: in vitro. As to conditions: human.
Series [4] is described as follows: in vitro. To be noted: human, Caco-2. This is another data set of the same source.
The next series has as its system Intestine. In words: Ratio of intestine AUC in po dosed mdr1 knock out mouse to intestine AUC in po dosed wild type mouse. It is filed as ADME, organism-based. As to conditions: in vivo.
Series [5] is described as follows: in vitro. To be noted: human, Caco-2. The source holds these as a separate data set.
The target of series [6] is ATP-binding cassette sub-family C member 2 (Homo sapiens, UniProt Q92887). In words: Fold activity change at MRP2 ATPase (unknown origin) relative to control. It is filed as ADME.
ATP-binding cassette sub-family C member 2, sequence (Q92887 whole entry): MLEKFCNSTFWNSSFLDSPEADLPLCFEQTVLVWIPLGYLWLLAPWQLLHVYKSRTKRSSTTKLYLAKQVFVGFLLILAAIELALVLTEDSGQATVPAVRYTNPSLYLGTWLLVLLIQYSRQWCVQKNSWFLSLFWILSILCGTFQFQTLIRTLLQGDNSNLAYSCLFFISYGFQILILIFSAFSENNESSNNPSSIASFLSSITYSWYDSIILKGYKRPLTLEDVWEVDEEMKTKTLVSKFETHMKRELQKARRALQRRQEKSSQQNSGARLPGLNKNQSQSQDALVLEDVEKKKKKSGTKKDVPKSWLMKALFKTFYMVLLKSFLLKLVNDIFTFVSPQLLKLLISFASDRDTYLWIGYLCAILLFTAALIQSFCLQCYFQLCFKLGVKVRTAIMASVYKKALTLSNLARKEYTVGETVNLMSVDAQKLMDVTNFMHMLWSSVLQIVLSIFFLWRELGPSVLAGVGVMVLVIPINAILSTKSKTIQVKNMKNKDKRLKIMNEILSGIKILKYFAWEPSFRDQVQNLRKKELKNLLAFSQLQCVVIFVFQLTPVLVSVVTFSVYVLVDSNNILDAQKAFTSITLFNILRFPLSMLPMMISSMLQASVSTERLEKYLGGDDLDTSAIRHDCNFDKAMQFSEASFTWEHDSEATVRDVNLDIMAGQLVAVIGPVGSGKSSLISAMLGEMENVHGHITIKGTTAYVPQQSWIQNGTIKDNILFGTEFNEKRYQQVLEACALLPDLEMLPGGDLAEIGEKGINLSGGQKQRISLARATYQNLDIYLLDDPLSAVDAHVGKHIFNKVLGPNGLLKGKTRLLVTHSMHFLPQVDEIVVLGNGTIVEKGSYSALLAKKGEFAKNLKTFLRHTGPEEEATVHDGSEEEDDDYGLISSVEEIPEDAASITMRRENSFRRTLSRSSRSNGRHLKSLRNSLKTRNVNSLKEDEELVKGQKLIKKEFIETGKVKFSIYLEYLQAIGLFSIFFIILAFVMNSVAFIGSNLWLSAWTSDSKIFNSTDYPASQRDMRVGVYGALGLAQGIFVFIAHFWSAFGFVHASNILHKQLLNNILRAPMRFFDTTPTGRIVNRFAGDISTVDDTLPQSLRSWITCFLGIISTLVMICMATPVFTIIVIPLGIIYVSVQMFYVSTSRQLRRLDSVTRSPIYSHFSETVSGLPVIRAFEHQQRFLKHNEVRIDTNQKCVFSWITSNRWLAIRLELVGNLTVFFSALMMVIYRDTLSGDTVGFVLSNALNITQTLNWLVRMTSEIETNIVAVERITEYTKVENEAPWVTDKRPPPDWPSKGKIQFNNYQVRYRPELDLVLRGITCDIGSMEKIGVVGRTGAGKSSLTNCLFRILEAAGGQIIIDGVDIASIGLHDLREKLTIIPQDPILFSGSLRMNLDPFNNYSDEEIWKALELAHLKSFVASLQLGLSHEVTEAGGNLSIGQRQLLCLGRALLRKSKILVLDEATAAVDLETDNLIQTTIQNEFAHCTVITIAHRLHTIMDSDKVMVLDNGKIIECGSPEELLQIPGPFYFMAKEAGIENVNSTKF
For series [7], the system named is MDCK. Kind of series: Efflux ratio of permeability from basolateral to apical over apical to basolateral side of MDCK cells expressing MDR1. It is filed as ADME, cell-based, Canis lupus familiaris. To be noted: dog.
Series [8] has as its system MDCK. Kind of series: Efflux ratio of permeability from basolateral to apical over apical to basolateral side of MDCK cells expressing BCRP. It is filed as ADME, cell-based, Canis lupus familiaris. To be noted: dog.

Structures are written as SMILES. Numbered stars: 1 amine (or outer) side, 2 acyl side, 3 side chain; on linkers, the order of the positions; unused ones are H or OH. Bridge positions count the residues as written; N and C are the ends. Square brackets hold non-standard residues; d marks the D form. Peptide text beside a SMILES is read from it. I, II: the chains in the order shown. Actinocin(9to1) = Cc1c2oc3c(C)ccc(C(=O)[*:1])c3nc-2c(C(=O)[*:2])c(N)c1=O; NMeV = CN[C@H](C(=O)O)C(C)C; Sar = CNCC(=O)O

Broadly, the Papp is a coefficient for how fast a substance crosses the barrier. Usually efflux ratio stands for the permeability from basolateral to apical divided by that in the opposite direction, in the common usage. For orientation: Papp B→A means the apparent permeability from the basolateral to the apical side of a cell layer. The Papp A→B is the apparent permeability from the apical to the basolateral side of a cell layer. A lower Papp A→B goes with poor permeation.

Description for clinical: Fraction absorbed in human

As for `CC(C)(C)NC(=O)[C@@H]1C[C@@H]2CCCC[C@@H]2CN1C[C@@H](O)[C@H](Cc1ccccc1)NC(=O)[C@H](CC(N)=O)NC(=O)c1ccc2ccccc2n1`, the values for the Papp in series [1] and in series [2] were 5.6 ×10⁻⁶ cm/s and 0.4 ×10⁻⁶ cm/s, respectively. In the series “clinical”, this compound registered a Fa of 4%.
Consider `CC1=C(CC(=O)O)c2cc(F)ccc2/C1=C\c1ccc([S+](C)[O-])cc1` (stereo not given), for which the efflux ratio at 2 h, 10 µM stood at 3.6 in “in vitro [3]” and 2.6 in the series with P-gp (Caco-2, with LY335979 1 uM). Further, the Papp worked out at 13.5 ×10⁻⁶ cm/s in series [1] and 2 ×10⁻⁶ cm/s in series [2]. The same compound displayed a Fa in the series “clinical” of 90%.
As to `CN/C(=N/CCSCc1nc[nH]c1C)NC#N` [CIMETIDINE], the Papp B→A at 2 h, 10 µM in the series “in vitro [4]” is 4.8 ×10⁻⁶ cm/s. The “Ratio AUC” value with Intestine was determined as 0.95. For the same compound, the Papp A→B at 2 h, 10 µM in the series “in vitro [5]” worked out at 1.4 ×10⁻⁶ cm/s. Also, the values for the efflux ratio at 2 h, 10 µM in “in vitro [3]” and with P-gp (Caco-2) were 3.5 and 1.8, respectively. Besides, the Fa in “clinical” was found to be 60%.
Regarding `COc1cc2c(c(OC)c1OC)-c1ccc(OC)c(=O)cc1[C@@H](NC(C)=O)CC2` [COLCHICINE], the efflux ratio at 2 h, 10 µM in “in vitro [3]” stood at 4.3; with P-gp (Caco-2), 0.8. In series [6], the “fold change (FC)” value is listed as -0.4. In “clinical”, the Fa came out at 44%.
With `Cc1c2oc3c(C)ccc(C(=O)N[C@@H]4C(=O)N[C@H](C(C)C)C(=O)N5CCC[C@H]5C(=O)N(C)CC(=O)N(C)[C@@H](C(C)C)C(=O)O[C@@H]4C)c3nc-2c(C(=O)N[C@@H]2C(=O)N[C@H](C(C)C)C(=O)N3CCC[C@H]3C(=O)N(C)CC(=O)N(C)[C@@H](C(C)C)C(=O)O[C@@H]2C)c(N)c1=O` [DACTINOMYCIN] (I: T[dV]P[Sar][NMeV] / II: T[dV]P[Sar][NMeV]; ester I:1-I:C, II:1-II:C; linker I:N-II:N via Actinocin(9to1)), the efflux ratio at 2 h, 10 µM in “in vitro [3]” was determined as 6.4; in the series on P-gp (Caco-2, with LY335979 1 uM), 4. Further, the apparent permeability coefficient (Papp) amounted to 4.5 ×10⁻⁶ cm/s in [1] and 0.8 ×10⁻⁶ cm/s in series [2]. In “clinical”, this compound showed a Fa of 5%.
For `COc1cccc2c1C(=O)c1c(O)c3c(c(O)c1C2=O)C[C@@](O)(C(C)=O)C[C@@H]3O[C@H]1C[C@H](N)[C@H](O)[C@H](C)O1` [DAUNORUBICIN], the “Ratio AUC” value in the series with Intestine stood at 3. In the series with P-gp (Caco-2), the efflux ratio at 2 h, 10 µM was 0.4. In the series “clinical”, this compound gave a Fa of 10%.
`COc1ccc([C@@H]2Sc3ccccc3N(CCN(C)C)C(=O)[C@@H]2OC(C)=O)cc1` [DILTIAZEM] yielded an apparent permeability from basolateral to apical (Papp B→A) at 2 h, 10 µM in “in vitro [4]” of 8.3 ×10⁻⁶ cm/s. The same compound displayed a Papp A→B at 2 h, 10 µM in the series “in vitro [5]” of 12 ×10⁻⁶ cm/s. The efflux ratio at 2 h, 10 µM in the series “in vitro [3]” is 0.7; with P-gp (Caco-2, with LY335979 1 uM), 0.4. Also, the Ratio in the series on MDCK [7] was 0.8.
`O=c1[nH]c2ccccc2n1CCCN1CCC(n2c(=O)[nH]c3cc(Cl)ccc32)CC1` [DOMPERIDONE]: the Papp B→A at 2 h, 10 µM in the series “in vitro [4]” amounted to 15.4 ×10⁻⁶ cm/s. This compound also came in with a Papp A→B at 2 h, 10 µM in the series “in vitro [5]” of 5.2 ×10⁻⁶ cm/s. Besides, the “fold change (FC)” value in series [6] came to 3. In “clinical”, the Fa was 93%.
The compound `CC[C@H]1OC(=O)[C@H](C)[C@@H](O[C@H]2C[C@@](C)(OC)[C@@H](O)[C@H](C)O2)[C@H](C)[C@@H](O[C@@H]2O[C@H](C)C[C@H](N(C)C)[C@H]2O)[C@](C)(O)C[C@@H](C)C(=O)[C@H](C)[C@@H](O)[C@]1(C)O` [ERYTHROMYCIN] came in with a Papp B→A at 2 h, 10 µM in the series “in vitro [4]” of 3 ×10⁻⁶ cm/s. For the same compound, in the series with MDCK [8], the Ratio came out at 8.5. In “in vitro [5]”, the apical-to-basolateral permeability (Papp A→B) at 2 h, 10 µM came out at 0.3 ×10⁻⁶ cm/s. The efflux ratio at 2 h, 10 µM in the series “in vitro [3]” came out at 7.1; with P-gp (Caco-2), 0.5. For the same compound, the “fold change (FC)” value in [6] is listed as 1. The compound also yielded a Fa in “clinical” of 35%.
Turning to `CC(C)n1c(/C=C/C(O)CC(O)CC(=O)O)c(-c2ccc(F)cc2)c2ccccc21` (stereo not given) [FLUVASTATIN], the Ratio with MDCK [7] is 4.9. The efflux ratio at 2 h, 10 µM in the series on P-gp (Caco-2, with LY335979 1 uM) was 12.3. Also, the apparent permeability (Papp) amounted to 15.3 ×10⁻⁶ cm/s in [1] and 1.5 ×10⁻⁶ cm/s in series [2]. Besides, in “clinical”, the Fa is 98%.
Take `Nc1cc(-c2ccncc2)c[nH]c1=O` [INAMRINONE]: the efflux ratio at 2 h, 10 µM came to 1.4 in “in vitro [3]” and 3.3 with P-gp (Caco-2, with LY335979 1 uM). Moreover, the Papp in series [1] is 16.6 ×10⁻⁶ cm/s; in series [2], 7.5 ×10⁻⁶ cm/s.
Turning to `CN(Cc1cnc2nc(N)nc(N)c2n1)c1ccc(C(=O)N[C@@H](CCC(=O)O)C(=O)O)cc1` [METHOTREXATE], the Papp B→A at 2 h, 10 µM in the series “in vitro [4]” came out at 1.1 ×10⁻⁶ cm/s. The compound also came in with a Papp A→B at 2 h, 10 µM in “in vitro [5]” of 1.2 ×10⁻⁶ cm/s. The efflux ratio at 2 h, 10 µM in the series “in vitro [3]” worked out at 0.9. The “fold change (FC)” value in series [6] is given as -0.2.
For the compound `Cc1ccccc1N1C(=O)c2cc(S(N)(=O)=O)c(Cl)cc2NC1C` (stereo not given) [METOLAZONE], in the series with MDCK [8], the Ratio stood at 5.1. In addition, the efflux ratio at 2 h, 10 µM in “in vitro [3]” is 3.3; in the series on P-gp (Caco-2, with LY335979 1 uM), 2.1. Further, the Papp came to 9.6 ×10⁻⁶ cm/s in [1] and 1.8 ×10⁻⁶ cm/s in series [2].
`C=CCN1CC[C@]23c4c5ccc(O)c4O[C@H]2C(=O)CC[C@@]3(O)[C@H]1C5` [NALOXONE] displayed a Papp B→A at 2 h, 10 µM in “in vitro [4]” of 10.3 ×10⁻⁶ cm/s. This compound came in with a Papp A→B at 2 h, 10 µM in the series “in vitro [5]” of 21.5 ×10⁻⁶ cm/s. Further, the efflux ratio at 2 h, 10 µM in the series “in vitro [3]” came out at 0.5; in the series on P-gp (Caco-2, with LY335979 1 uM), 0.5. In addition, the Ratio in the series with MDCK [7] was 0.7.
As to `O=C(O)c1cc(/N=N/c2ccc(S(=O)(=O)Nc3ccccn3)cc2)ccc1O` [SULFASALAZINE], the figures for the efflux ratio at 2 h, 10 µM in the series “in vitro [3]” and in the series with P-gp (Caco-2) were 16.9 and 32.2, respectively. Besides, in series [6], the “fold change (FC)” value is 9.
Turning to `O=C1C(CC[S+]([O-])c2ccccc2)C(=O)N(c2ccccc2)N1c1ccccc1` (stereo not given) [SULFINPYRAZONE], the efflux ratio at 2 h, 10 µM turned out to be 3.3 in “in vitro [3]” and 9 in the series with P-gp (Caco-2, with LY335979 1 uM). Also, the Papp is 5.8 ×10⁻⁶ cm/s in series [1] and 1.2 ×10⁻⁶ cm/s in series [2]. The compound also returned a Fa in “clinical” of 85%.
For `CC[C@@]1(O)C(=O)OCc2c1cc1n(c2=O)Cc2cc3c(CN(C)C)c(O)ccc3nc2-1` [TOPOTECAN], the Ratio with MDCK [8] was found to be 2.4. Further, the efflux ratio at 2 h, 10 µM in the series “in vitro [3]” came out at 6.9; with P-gp (Caco-2, with LY335979 1 uM), 13.1. Also, the Papp in series [1] was found to be 7.1 ×10⁻⁶ cm/s; in series [2] it was 0.9 ×10⁻⁶ cm/s. In the series “clinical”, this compound had a Fa of 30%.
In the case of `CC[C@]1(O)C[C@@H]2CN(CCc3c([nH]c4ccccc34)[C@@](C(=O)OC)(c3cc4c(cc3OC)N(C)[C@H]3[C@@](O)(C(=O)OC)[C@H](OC(C)=O)[C@]5(CC)C=CCN6CC[C@]43[C@@H]65)C2)C1` [VINBLASTINE], the Papp B→A at 2 h, 10 µM in “in vitro [4]” worked out at 11.9 ×10⁻⁶ cm/s. In addition, in the series with MDCK [8], the Ratio worked out at 1.8. For the same compound, the “Ratio AUC” value with Intestine was 0.7. The compound also came in with an apparent permeability from apical to basolateral (Papp A→B) at 2 h, 10 µM in the series “in vitro [5]” of 1 ×10⁻⁶ cm/s. The efflux ratio at 2 h, 10 µM in “in vitro [3]” came to 13.5; with P-gp (Caco-2) it was 2. Also, the Fa in “clinical” was 5%.
As to `CC[C@]1(O)C[C@H]2CN(CCc3c([nH]c4ccccc34)[C@@](C(=O)OC)(c3cc4c(cc3OC)N(C=O)[C@H]3[C@@](O)(C(=O)OC)[C@H](OC(C)=O)[C@]5(CC)C=CCN6CC[C@]43[C@@H]65)C2)C1` [VINCRISTINE], in the series with P-gp (Caco-2, with LY335979 1 uM), the efflux ratio at 2 h, 10 µM came to 8.6. Also, the Papp in [1] stood at 3.5 ×10⁻⁶ cm/s; in series [2], 0.4 ×10⁻⁶ cm/s. The same compound had a Fa in “clinical” of less than 10%.
On to `CCC1=C[C@@H]2CN(C1)Cc1c([nH]c3ccccc13)[C@@](C(=O)OC)(c1cc3c(cc1OC)N(C)[C@H]1[C@@](O)(C(=O)OC)[C@H](OC(C)=O)[C@]4(CC)C=CCN5CC[C@]31[C@@H]54)C2` [VINORELBINE], for which, in “in vitro [4]”, the Papp B→A at 2 h, 10 µM came out at 8.5 ×10⁻⁶ cm/s. Further, the Papp A→B at 2 h, 10 µM in the series “in vitro [5]” amounted to 1.4 ×10⁻⁶ cm/s. Further, the efflux ratio at 2 h, 10 µM was 5.9 in the series “in vitro [3]” and 1 in the series on P-gp (Caco-2, with LY335979 1 uM). The compound also yielded a Fa in “clinical” of 45%.

(Values after ChEMBL document CHEMBL3526001, “Attenuation of intestinal absorption by major efflux transporters: quantitative tools and strategies using a Caco-2 model” (Drug Metab Dispos, 2011).)
